Experimental data as given in patent US5192747A, “Anticoagulant peptides” (Merrell Dow Pharmaceuticals Inc., priority 1991, dated 1993).
Starred links: 1 amine or outer side, 2 acyl side, 3 side chain; linkers in the order of their positions; H or OH if unused. Non-standard residues stand in square brackets, D forms with d. Residues, ends and D or L forms follow the SMILES beside them. Cha = N[C@@H](CC1CCCCC1)C(=O)O; Suc = O=C(CCC(=O)[*:2])[*:1]

Target: Bovine thrombin (Bos taurus, UniProt P00735)
Assay: thrombin induced fibrin clot inhibition assay
Type: biochemical
Procedure: Samples were tested in a thrombin induced fibrin clot inhibition assay. All the solutions of the assay were made with an assay buffer containing 0.12M sodium chloride, 0.01M sodium phosphate, 0.01% sodium azide and 0.1% bovine serum albumin, pH 7.4. […] This solution of thrombin (50 ul; 0.2 pmol) was added to the wells of a microtiter plate containing 50 ul of a solution of the synthetic peptide being tested. […] The turbidity of the solution was monitored by the autoreader at 5 min intervals. […] This is equivalent to a twofold increase in fibrin clot formation time. For the assays using human thrombin,, it and bovine thrombin were titrated to concentrations which gave the fibrin clot at the same rate over a 30 min period.

SMILES | IC50 [µM]
CC[C@H](C)[C@H](NC(=O)[C@@H]1CCCN1C(=O)[C@H](CCC(=O)O)NC(=O)[C@H](Cc1ccc(O)cc1)NC(=O)CCC(=O)O)C(=O)N1CCC[C@H]1C(=O)N[C@@H](CCC(=O)O)C(=O)N[C@@H](CCC(=O)O)C(=O)N[C@@H](CC1CCCCC1)C(=O)N[C@@H](CCC(N)=O)C(N)=O [compound 5, Suc--Tyr--Glu--Pro--Ile-- Pro--Glu--Glu--Cha--Gln--NH2] (Suc-YEPIPEE[Cha]Q-NH2) | < 25
CC[C@H](C)[C@H](NC(=O)[C@@H]1CCCN1C(=O)[C@H](CCC(=O)O)NC(=O)[C@H](Cc1ccc(O)cc1)NC(=O)CCC(=O)O)C(=O)N1CCC[C@H]1C(=O)N[C@@H](CCC(=O)O)C(=O)N[C@@H](CCC(=O)O)C(=O)N[C@@H](CC1CCCCC1)C(=O)N[C@H](CCC(=O)O)C(=O)O [compound 15, Suc--Tyr--Glu--Pro--Ile--Pro--Glu--Glu--Cha--D-Glu--OH] | < 25
CC[C@H](C)[C@H](NC(=O)[C@@H]1CCCN1C(=O)[C@H](CCC(=O)O)NC(=O)[C@H](Cc1ccc(O)cc1)NC(=O)CCC(=O)O)C(=O)N1CCC[C@H]1C(=O)N[C@@H](CCC(=O)O)C(=O)N[C@@H](CCC(=O)O)C(=O)N[C@@H](C)C(=O)N[C@@H](CC1CCCCC1)C(=O)O [compound 18, Suc--Tyr--Glu--Pro--Ile--Pro--Glu--Glu--Ala--Cha--OH] | < 25
